Test results as given in ChEMBL document CHEMBL5620361, “A prodrug of the capsid assembly modulator improved druggability and lowing HBsAg and HBeAg for the treatment of chronic hepatitis B” (Eur J Med Chem, 2023).
Values joined by “and” are separate entries in the source; they are usually repeats but may differ in a detail not shown here. Identical values can stand only once. Active and inactive are the calls of the source. No cut-off for these calls is given here.

Tests used:
Hepatitis B virus [1] = experiment: Antiviral activity against HBV in mouse model infected with adeno-associated virus harbouring HBV genome assessed as log reduction in HBV DNA at 20 mg/kg, po qd for 8 weeks; assay type: functional
Hepatitis B virus [2] = experiment: Antiviral activity against HBV in mouse model infected with adeno-associated virus harbouring HBV genome assessed as log reduction in HBeAg at 20 mg/kg, po qd for 8 weeks; assay type: functional
Hepatitis B virus [3] = experiment: Antiviral activity against HBV in mouse model infected with adeno-associated virus harbouring HBV genome assessed as log reduction in HBsAg at 20 mg/kg, po qd for 8 weeks; assay type: functional
HepG2.2.15 [4] = experiment: Inhibition of HBeAg secretion in human HepG2.2.15 cells harboring HBV genome incubated for 8 days; assay type: functional, cell-based; details: Hepatitis B virus, time 8.0 day
Hepatitis B virus [5] = experiment: Antiviral activity against HBV in human HepG2.2.15 cells harboring HBV genome assessed as reduction in HBV DNA incubated for 8 days by real-time PCR analysis; assay type: functional, organism-based
Hepatitis B virus [6] = experiment: Antiviral activity against HBV in human HepG2.2.15 cells harboring HBV genome assessed as formation of fast-migrating capsids lacking capsid-associated HBV DNA upto 80 nM by native agarose gel electrophoresis; assay type: functional, organism-based
Hepatitis B virus [7] = experiment: Antiviral activity against HBV in human HepG2.2.15 cells harboring HBV genome assessed as reduction in HBV rcDNA incubated for 8 days by Southern blot analysis; assay type: functional, organism-based; details: dose <= 800.0 nM, time 8.0 day
Hepatitis B virus [8] = experiment: Antiviral activity against HBV in human HepG2.2.15 cells harboring HBV genome assessed as reduction in HBV ssDNA incubated for 8 days by Southern blot analysis; assay type: functional, organism-based; details: dose <= 800.0 nM, time 8.0 day
[9] = Cytotoxicity against human HepG2.2.15 cells harboring HBV genome incubated for 8 days by MTT assay; assay type: toxicity, cell-based, HepG2 2.2.15; details: time 8 day
HepG2.2.15 [10] = experiment: Inhibition of HBsAg secretion in human HepG2.2.15 cells harboring HBV genome incubated for 8 days; assay type: functional, cell-based; details: Hepatitis B virus, time 8.0 day
[11] = Prodrug conversion in ICR mouse assessed as half life of 4-((4-(5-chloro-2-fluoro-6-((3-hydroxypropyl)amino)pyridin-3-yl)-1-oxophthalazin-2(1H)-yl)methyl)benzonitrile metabolite at 20 mg/kg, po measured for 24 hrs by LC-MS/MS analysis; assay type: ADME, organism-based; details: in vivo
[12] = Prodrug conversion in ICR mouse assessed as Tmax of 3-((3-chloro-5-(3-(4-cyanobenzyl)-4-oxo-3,4-dihydrophthalazin-1-yl)-6-fluoropyridin-2-yl)amino)propanoic acid metabolite at 20 mg/kg, po measured for 24 hrs by LC-MS/MS analysis; assay type: ADME, organism-based; details: in vivo
[13] = Prodrug conversion in ICR mouse assessed as AUClast of 4-((4-(5-chloro-2-fluoro-6-((3-hydroxypropyl)amino)pyridin-3-yl)-1-oxophthalazin-2(1H)-yl)methyl)benzonitrile metabolite at 20 mg/kg, po measured for 24 hrs by LC-MS/MS analysis; assay type: ADME, organism-based; details: in vivo
[14] = Prodrug conversion in ICR mouse assessed as Cmax of 4-((4-(5-chloro-2-fluoro-6-((3-hydroxypropyl)amino)pyridin-3-yl)-1-oxophthalazin-2(1H)-yl)methyl)benzonitrile metabolite at 20 mg/kg, po measured for 24 hrs by LC-MS/MS analysis; assay type: ADME, organism-based; details: in vivo
Hepatitis B virus [15] = experiment: Antiviral activity against HBV in Balb/c mouse model infected with adeno-associated virus harbouring HBV 1.3 genome assessed as reduction in plasma HBeAg level at 100 mg/kg, po bid for 7 weeks followed by drug removal measured after 8 weeks by chemiluminescence immunoassay; assay type: functional, organism-based
[16] = Prodrug conversion in ICR mouse assessed as Tmax of 4-((4-(5-chloro-2-fluoro-6-((3-hydroxypropyl)amino)pyridin-3-yl)-1-oxophthalazin-2(1H)-yl)methyl)benzonitrile metabolite at 20 mg/kg, po measured for 24 hrs by LC-MS/MS analysis; assay type: ADME, organism-based; details: in vivo
Hepatitis B virus [17] = experiment: Antiviral activity against HBV in Balb/c mouse model infected with adeno-associated virus harbouring HBV 1.3 genome assessed as reduction in intrahepatic HBV DNA administered orally twice daily for 4 weeks by Southern blot analysis; assay type: functional, organism-based; details: dose 50-75 mg/kg, route po
Hepatitis B virus [18] = experiment: Antiviral activity against HBV in Balb/c mouse model infected with adeno-associated virus harbouring HBV 1.3 genome assessed as reduction in serum HBV DNA administered orally twice daily for 4 weeks by real-time PCR analysis; assay type: functional, organism-based; details: dose 25-75 mg/kg, route po
[19] = Prodrug conversion in ICR mouse assessed as AUClast of 3-((3-chloro-5-(3-(4-cyanobenzyl)-4-oxo-3,4-dihydrophthalazin-1-yl)-6-fluoropyridin-2-yl)amino)propanoic acid metabolite at 20 mg/kg, po measured for 24 hrs by LC-MS/MS analysis; assay type: ADME, organism-based; details: in vivo
Hepatitis B virus [20] = experiment: Antiviral activity against HBV in Balb/c mouse model infected with adeno-associated virus harbouring HBV 1.3 genome assessed as reduction in intrahepatic HBcAg level administered orally twice daily for 4 weeks by Western blot analysis; assay type: functional, organism-based; details: dose 50-75 mg/kg, route po
[21] = Prodrug conversion in ICR mouse assessed as half life of 3-((3-chloro-5-(3-(4-cyanobenzyl)-4-oxo-3,4-dihydrophthalazin-1-yl)-6-fluoropyridin-2-yl)amino)propanoic acid metabolite at 20 mg/kg, po measured for 24 hrs by LC-MS/MS analysis; assay type: ADME, organism-based; details: in vivo
Hepatitis B virus [22] = experiment: Antiviral activity against HBV in Balb/c mouse model infected with adeno-associated virus harbouring HBV 1.3 genome assessed as reduction in plasma HBsAg level at 100 mg/kg, po bid for 7 weeks followed by drug removal measured after 8 weeks by chemiluminescence immunoassay; assay type: functional, organism-based
Hepatitis B virus [23] = experiment: Antiviral activity against HBV in Balb/c mouse model infected with adeno-associated virus harbouring HBV 1.3 genome assessed as reduction in plasma HBV DNA at 100 mg/kg, po bid for 7 weeks followed by drug removal measured after 8 weeks by real-time PCR analysis; assay type: functional, organism-based
[24] = Prodrug conversion in ICR mouse assessed as Cmax of 3-((3-chloro-5-(3-(4-cyanobenzyl)-4-oxo-3,4-dihydrophthalazin-1-yl)-6-fluoropyridin-2-yl)amino)propanoic acid metabolite at 20 mg/kg, po measured for 24 hrs by LC-MS/MS analysis; assay type: ADME, organism-based; details: in vivo
[25] = Toxicity in Balb/c mouse model infected with adeno-associated virus harbouring HBV 1.3 genome at 100 mg/kg, po bid; assay type: organism-based; details: in vivo
Hepatitis B virus [26] = experiment: Antiviral activity against HBV in Balb/c mouse model infected with adeno-associated virus harbouring HBV 1.3 genome assessed as reduction in cytoplasmic HBcAg level at 50 to 75 mg/kg, po bid for 4 weeks by IHC analysis; assay type: functional, organism-based; details: dose 50-75 mg/kg
Mus musculus [27] = experiment: Effect on HBeAg expression in Balb/c mouse model infected with adeno-associated virus harbouring HBV 1.3 genome at 1 mg/kg, po qd for 7 weeks followed by drug removal measured after 8 weeks by chemiluminescence immunoassay; assay type: functional, organism-based
Mus musculus [28] = experiment: Effect on HBsAg expression in Balb/c mouse model infected with adeno-associated virus harbouring HBV 1.3 genome at 1 mg/kg, po qd for 7 weeks followed by drug removal measured after 8 weeks by chemiluminescence immunoassay; assay type: functional, organism-based
Hepatitis B virus [29] = experiment: Antiviral activity against HBV in Balb/c mouse model infected with adeno-associated virus harbouring HBV 1.3 genome assessed as reduction in intrahepatic HBV DNA at 1 mg/kg, po qd for 4 weeks by Southern blot analysis; assay type: functional, organism-based
Mus musculus [30] = experiment: Effect on intrahepatic HBcAg expression in Balb/c mouse model infected with adeno-associated virus harbouring HBV 1.3 genome at 1 mg/kg, po qd for 4 weeks by Western blot analysis; assay type: functional, organism-based
Hepatitis B virus [31] = experiment: Antiviral activity against HBV in Balb/c mouse model infected with adeno-associated virus harbouring HBV 1.3 genome assessed as reduction in plasma HBV DNA at 1 mg/kg, po qd for 7 weeks followed by drug removal measured after 8 weeks by real-time PCR analysis; assay type: functional, organism-based
[32] = AUClast in ICR mouse at 20 mg/kg, po measured for 24 hrs byb LC-MS/MS analysis; assay type: ADME, organism-based; details: in vivo
[33] = Half life in ICR mouse at 20 mg/kg, po measured for 24 hrs byb LC-MS/MS analysis; assay type: ADME, organism-based; details: in vivo
[34] = Cmax in ICR mouse at 20 mg/kg, po measured for 24 hrs byb LC-MS/MS analysis; assay type: ADME, organism-based; details: in vivo
[35] = Tmax in ICR mouse at 20 mg/kg, po measured for 24 hrs byb LC-MS/MS analysis; assay type: ADME, organism-based; details: in vivo

Structure (SMILES)	inhibition (HepG2.2.15 [4])	Activity (Hepatitis B virus [6])	Activity (Hepatitis B virus [7])	Activity (Hepatitis B virus [8])	CC50 at 192 h [9] [µM]	inhibition (HepG2.2.15 [10])	Tmax [12] [h]	AUClast [13] [ng·h/mL]	Cmax [14] [ng/mL]	AUClast [19] [ng·h/mL]	Cmax [24] [ng/mL]	also measured
CCOC(=O)C1=C(CN2CCN3C(=O)N(CC(C)(C)C(=O)O)C[C@@H]3C2)N=C(c2nccs2)N[C@H]1c1cccc(F)c1C [LINVENCORVIR]	–	–	–	–	–	–	–	–	–	–	–	log(activity) (Hepatitis B virus [1]): 3; log(activity) (Hepatitis B virus [2]): 1.5; log(activity) (Hepatitis B virus [3]): 2.4
N#Cc1ccc(Cn2nc(-c3cc(Cl)c(NCCC(=O)O)nc3F)c3ccccc3c2=O)cc1	inactive	Active	Dose-Dependent Effect	Dose-Dependent Effect	> 100	inactive	–	–	–	–	–	EC50 (Hepatitis B virus [5]): 1.29 µM and 0.17 µM
CC(C)[C@H](N)C(=O)OCCCNc1nc(F)c(-c2nn(Cc3ccc(C#N)cc3)c(=O)c3ccccc23)cc1Cl	inactive	Active	Dose-Dependent Effect	Dose-Dependent Effect	63.1	inactive	1.67	2296	1065	13560	3729	t1/2 [11]: 2.32 h; Activity (Hepatitis B virus [15]): Active; Tmax [16]: 0.42 h; Activity (Hepatitis B virus [17]): Dose-Dependent Effect; Activity (Hepatitis B virus [18]): Dose-Dependent Effect; Activity (Hepatitis B virus [20]): Dose-Dependent Effect; t1/2 [21]: 2.85 h; Activity (Hepatitis B virus [22]): Active; Activity (Hepatitis B virus [23]): Active; Activity [25]: Non-Toxic; Activity (Hepatitis B virus [26]): Dose-Dependent Effect
C=C1[C@H](CO)[C@@H](O)C[C@@H]1n1cnc2c(=O)[nH]c(N)nc21 [ENTECAVIR ANHYDROUS]	–	–	–	–	> 1	–	–	–	–	–	–	Activity (Mus musculus [27]): inactive; Activity (Mus musculus [28]): inactive; Activity (Hepatitis B virus [29]): Active; Activity (Mus musculus [30]): inactive; Activity (Hepatitis B virus [31]): Active
CC(C)OC(=O)[C@@H](C)N[P@](=O)(OCCCNc1nc(F)c(-c2nn(Cc3ccc(C#N)cc3)c(=O)c3ccccc23)cc1Cl)Oc1ccccc1 (single isomer, unassigned)	–	–	–	–	–	–	–	186	48.2	2727	321	–
N#Cc1ccc(Cn2nc(-c3cc(Cl)c(NCCCO)nc3F)c3ccccc3c2=O)cc1	inactive	Active	Dose-Dependent Effect	Dose-Dependent Effect	> 100	inactive	2.67	–	–	498	62.2	AUC(0-t) at 24 h [32]: 61.4 ng·h/mL; half-life [33]: 0.99 h; Cmax [34]: 27 ng/mL; Tmax [35]: 2 h
